Measured values reported in the supplement of paper PMC4862054.

These molecules were tested on HCC1937 (assay: normalised response (% of control), CellTiter-Glo; higher = more viable cells (100 = DMSO, 0 = benzethonium chloride kill control)). Settings: incubation time: 72 h.
Method in brief: (§1)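 Each entry is the normalised signal at a single concentration within a series. The series comprised 5 concentrations in 10-fold steps over a compound-specific 10,000-fold range, placed in 384-well plates into which breast cancer cell lines were seeded as 20 µl suspension and incubated 72 h. CellTox Green (485/520 nm) fluorescence and then CellTiter-Glo luminescence were read, with signals normalised per plate to 0.1 % DMSO (100) and a positive kill control (0).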

Row | SMILES | normalised response [%]
1 | O=[N+]([O-])c1ccc2c(c1)S(=O)(=O)C=C2 [Stattic] (5000 nM) | 22.3
2 | CC(C)n1cnc2c(NCCc3ccc(O)cc3)nc(-c3csc4ccccc34)nc21 [StemRegenin 1] (1000 nM) | 95.4

Each molecule was assayed on HDQ-P1 in the same assay as above. Settings: incubation time: 72 h.
Method in brief: as §1

Row | SMILES | normalised response [%]
3 | CCn1c(C(=O)N(C2CC2)C2CC2)cc2c3c(ncn3C)c(Nc3cc(C)n(C)n3)nc21 (1000 nM) | 98.8
4 | CCN(CC)CCCC(C)Nc1ccnc2cc(Cl)ccc12 (stereo not given) [Chloroquine] (10000 nM) | 86.2
5 | O=C(O)CNC(=O)c1c(O)c2ccccc2n(Cc2ccccc2)c1=O [IOX-2] (5000 nM) | 100
6 | CN(C)C(=N)NC(=N)N [Metformin] (10000 nM) | 97.2
7 | CN(Cc1cnc2nc(N)nc(N)c2n1)c1ccc(C(=O)N[C@@H](CCC(=O)O)C(=O)O)cc1 [Methotrexate] (5000 nM) | 51.3
8 | O=[N+]([O-])c1ccc2c(c1)S(=O)(=O)C=C2 [Stattic] (5000 nM) | 92.2
9 | CC(C)n1cnc2c(NCCc3ccc(O)cc3)nc(-c3csc4ccccc34)nc21 [StemRegenin 1] (1000 nM) | 89.6

These molecules were tested on Hs578T in the same assay as above. Settings: incubation time: 72 h.
Method in brief: as §1

Row | SMILES | normalised response [%]
10 | CCn1c(C(=O)N(C2CC2)C2CC2)cc2c3c(ncn3C)c(Nc3cc(C)n(C)n3)nc21 (1000 nM) | 95.8
11 | CCN(CC)CCCC(C)Nc1ccnc2cc(Cl)ccc12 (stereo not given) [Chloroquine] (10000 nM) | 97.4
12 | O=C(O)CNC(=O)c1c(O)c2ccccc2n(Cc2ccccc2)c1=O [IOX-2] (5000 nM) | 100
13 | CN(C)C(=N)NC(=N)N [Metformin] (10000 nM) | 98.9
14 | CN(Cc1cnc2nc(N)nc(N)c2n1)c1ccc(C(=O)N[C@@H](CCC(=O)O)C(=O)O)cc1 [Methotrexate] (5000 nM) | 110
15 | O=[N+]([O-])c1ccc2c(c1)S(=O)(=O)C=C2 [Stattic] (5000 nM) | 29.6
16 | CC(C)n1cnc2c(NCCc3ccc(O)cc3)nc(-c3csc4ccccc34)nc21 [StemRegenin 1] (1000 nM) | 105

These molecules were tested on MCF-10A in the same assay as above. Settings: incubation time: 72 h.
Method in brief: as §1

Row | SMILES | normalised response [%]
17 | CCn1c(C(=O)N(C2CC2)C2CC2)cc2c3c(ncn3C)c(Nc3cc(C)n(C)n3)nc21 (1000 nM) | 99.9
18 | CCN(CC)CCCC(C)Nc1ccnc2cc(Cl)ccc12 (stereo not given) [Chloroquine] (10000 nM) | 74.2
19 | O=C(O)CNC(=O)c1c(O)c2ccccc2n(Cc2ccccc2)c1=O [IOX-2] (5000 nM) | 104
20 | CN(C)C(=N)NC(=N)N [Metformin] (10000 nM) | 87.7
21 | CN(Cc1cnc2nc(N)nc(N)c2n1)c1ccc(C(=O)N[C@@H](CCC(=O)O)C(=O)O)cc1 [Methotrexate] (5000 nM) | 107
22 | O=[N+]([O-])c1ccc2c(c1)S(=O)(=O)C=C2 [Stattic] (5000 nM) | 105
23 | CC(C)n1cnc2c(NCCc3ccc(O)cc3)nc(-c3csc4ccccc34)nc21 [StemRegenin 1] (1000 nM) | 94

These molecules were tested on MDA-MB-231 in the same assay as above. Settings: incubation time: 72 h.
Method in brief: as §1

Row | SMILES | normalised response [%]
24 | CCn1c(C(=O)N(C2CC2)C2CC2)cc2c3c(ncn3C)c(Nc3cc(C)n(C)n3)nc21 (1000 nM) | 92.5
25 | CCN(CC)CCCC(C)Nc1ccnc2cc(Cl)ccc12 (stereo not given) [Chloroquine] (10000 nM) | 73.9
26 | O=C(O)CNC(=O)c1c(O)c2ccccc2n(Cc2ccccc2)c1=O [IOX-2] (5000 nM) | 91.3
27 | CN(C)C(=N)NC(=N)N [Metformin] (10000 nM) | 93.5
28 | CN(Cc1cnc2nc(N)nc(N)c2n1)c1ccc(C(=O)N[C@@H](CCC(=O)O)C(=O)O)cc1 [Methotrexate] (5000 nM) | 77.5
29 | O=[N+]([O-])c1ccc2c(c1)S(=O)(=O)C=C2 [Stattic] (5000 nM) | 30.9
30 | CC(C)n1cnc2c(NCCc3ccc(O)cc3)nc(-c3csc4ccccc34)nc21 [StemRegenin 1] (1000 nM) | 110

These molecules were tested on MDA-MB-436 in the same assay as above. Settings: incubation time: 72 h.
Method in brief: as §1

Row | SMILES | normalised response [%]
31 | CCn1c(C(=O)N(C2CC2)C2CC2)cc2c3c(ncn3C)c(Nc3cc(C)n(C)n3)nc21 (1000 nM) | 105
32 | CCN(CC)CCCC(C)Nc1ccnc2cc(Cl)ccc12 (stereo not given) [Chloroquine] (10000 nM) | 77.3
33 | O=C(O)CNC(=O)c1c(O)c2ccccc2n(Cc2ccccc2)c1=O [IOX-2] (5000 nM) | 96.7
34 | CN(C)C(=N)NC(=N)N [Metformin] (10000 nM) | 101
35 | CN(Cc1cnc2nc(N)nc(N)c2n1)c1ccc(C(=O)N[C@@H](CCC(=O)O)C(=O)O)cc1 [Methotrexate] (5000 nM) | 81.5
36 | O=[N+]([O-])c1ccc2c(c1)S(=O)(=O)C=C2 [Stattic] (5000 nM) | 75.7
37 | CC(C)n1cnc2c(NCCc3ccc(O)cc3)nc(-c3csc4ccccc34)nc21 [StemRegenin 1] (1000 nM) | 100

Each molecule was assayed on MDA-MB-453 in the same assay as above. Settings: incubation time: 72 h.
Method in brief: as §1

Row | SMILES | normalised response [%]
38 | CCn1c(C(=O)N(C2CC2)C2CC2)cc2c3c(ncn3C)c(Nc3cc(C)n(C)n3)nc21 (1000 nM) | 92.7
39 | CCN(CC)CCCC(C)Nc1ccnc2cc(Cl)ccc12 (stereo not given) [Chloroquine] (10000 nM) | 28.8
40 | O=C(O)CNC(=O)c1c(O)c2ccccc2n(Cc2ccccc2)c1=O [IOX-2] (5000 nM) | 93.1
41 | CN(C)C(=N)NC(=N)N [Metformin] (10000 nM) | 80.3
42 | CN(Cc1cnc2nc(N)nc(N)c2n1)c1ccc(C(=O)N[C@@H](CCC(=O)O)C(=O)O)cc1 [Methotrexate] (5000 nM) | 110
43 | O=[N+]([O-])c1ccc2c(c1)S(=O)(=O)C=C2 [Stattic] (5000 nM) | 45
44 | CC(C)n1cnc2c(NCCc3ccc(O)cc3)nc(-c3csc4ccccc34)nc21 [StemRegenin 1] (1000 nM) | 102

The molecules below were run on MDA-MB-468 in the same assay as above. Settings: incubation time: 72 h.
Method in brief: as §1

Row | SMILES | normalised response [%]
45 | CCn1c(C(=O)N(C2CC2)C2CC2)cc2c3c(ncn3C)c(Nc3cc(C)n(C)n3)nc21 (1000 nM) | 85.4
46 | CCN(CC)CCCC(C)Nc1ccnc2cc(Cl)ccc12 (stereo not given) [Chloroquine] (10000 nM) | 57.4
47 | O=C(O)CNC(=O)c1c(O)c2ccccc2n(Cc2ccccc2)c1=O [IOX-2] (5000 nM) | 106
48 | CN(C)C(=N)NC(=N)N [Metformin] (10000 nM) | 92.7
49 | CN(Cc1cnc2nc(N)nc(N)c2n1)c1ccc(C(=O)N[C@@H](CCC(=O)O)C(=O)O)cc1 [Methotrexate] (5000 nM) | 99.4
50 | O=[N+]([O-])c1ccc2c(c1)S(=O)(=O)C=C2 [Stattic] (5000 nM) | 2.23
51 | CC(C)n1cnc2c(NCCc3ccc(O)cc3)nc(-c3csc4ccccc34)nc21 [StemRegenin 1] (1000 nM) | 100

What follows are molecules tested on MFM-223 in the same assay as above. Settings: incubation time: 72 h.
Method in brief: as §1

Row | SMILES | normalised response [%]
52 | CCn1c(C(=O)N(C2CC2)C2CC2)cc2c3c(ncn3C)c(Nc3cc(C)n(C)n3)nc21 (1000 nM) | 95.2
53 | CCN(CC)CCCC(C)Nc1ccnc2cc(Cl)ccc12 (stereo not given) [Chloroquine] (10000 nM) | 62.9
54 | O=C(O)CNC(=O)c1c(O)c2ccccc2n(Cc2ccccc2)c1=O [IOX-2] (5000 nM) | 97.7
55 | CN(C)C(=N)NC(=N)N [Metformin] (10000 nM) | 92.4
56 | CN(Cc1cnc2nc(N)nc(N)c2n1)c1ccc(C(=O)N[C@@H](CCC(=O)O)C(=O)O)cc1 [Methotrexate] (5000 nM) | 104
57 | O=[N+]([O-])c1ccc2c(c1)S(=O)(=O)C=C2 [Stattic] (5000 nM) | 22.8
58 | CC(C)n1cnc2c(NCCc3ccc(O)cc3)nc(-c3csc4ccccc34)nc21 [StemRegenin 1] (1000 nM) | 93.8

What follows are molecules tested on SK-BR-3 in the same assay as above. Settings: incubation time: 72 h.
Method in brief: as §1

Row | SMILES | normalised response [%]
59 | CCn1c(C(=O)N(C2CC2)C2CC2)cc2c3c(ncn3C)c(Nc3cc(C)n(C)n3)nc21 (1000 nM) | 101
60 | CCN(CC)CCCC(C)Nc1ccnc2cc(Cl)ccc12 (stereo not given) [Chloroquine] (10000 nM) | 35.2
61 | O=C(O)CNC(=O)c1c(O)c2ccccc2n(Cc2ccccc2)c1=O [IOX-2] (5000 nM) | 99.7
62 | CN(C)C(=N)NC(=N)N [Metformin] (10000 nM) | 77.8
63 | CN(Cc1cnc2nc(N)nc(N)c2n1)c1ccc(C(=O)N[C@@H](CCC(=O)O)C(=O)O)cc1 [Methotrexate] (5000 nM) | 115
64 | O=[N+]([O-])c1ccc2c(c1)S(=O)(=O)C=C2 [Stattic] (5000 nM) | 80.9
65 | CC(C)n1cnc2c(NCCc3ccc(O)cc3)nc(-c3csc4ccccc34)nc21 [StemRegenin 1] (1000 nM) | 96.5
